This assay deals with T1, Recombinant human BRD4 containing dual bromodomains (BRD4-BD12 (1-477)) (Homo sapiens, UniProt O60885).
T1 construct: Recombinant human BRD4 containing dual bromodomains (BRD4-BD12 (1-477)); made in house; host or cells: E. coli BL21-CodonPlus (DE3), modified pET vector
The experiment in a line: BRD4 Alphascreen binding assay. In short, it runs like this: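 AlphaScreen proximity between Ni-chelate-bound BRD4-BD12 (1-477) and streptavidin-captured H4 K5/K8/K12/K16-acetyl peptide measured after 1 h room-temperature compound incubation and 30 min with 7.5 μg/ml beads. Buffer: 50 mM HEPES pH 7.5, 50 mM NaCl, 0.01% BSA, 0.01% Triton X-100; data plate-normalized and four-parameter fit for IC50.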
(In general: Bead proximity is the source of the signal in Alpha formats.)

pIC50: −log10 of the molar value.

As usually defined, the pIC50 is the IC50 on a negative log10 scale, so that one unit is a factor of ten. In the case of `CCOc1cc(C(=O)O)nc(OCC)c1-c1cn(-c2cn(C(F)F)nc2C)c2ncc(-c3c(C)noc3C)cc12` [P-0429, 5-(1-(1-(difluoromethyl)-3-methyl-1H-pyrazol-4-yl)-5-(3,5-dimethylisoxazol-4-yl)-1H-pyrrolo[2,3-b]pyridin-3-yl)-4,6-diethoxypicolinic acid], the pIC50 was 3.00 to 5.10. As for `CCOc1cc(C(=O)O)nc(OCC)c1-c1cn(-c2cn(CC)nc2C)c2ncc(-c3c(C)noc3C)cc12` [P-0430, 5-(5-(3,5-dimethylisoxazol-4-yl)-1-(1-ethyl-3-methyl-1H-pyrazol-4-yl)-1H-pyrrolo[2,3-b]pyridin-3-yl)-4,6-diethoxypicolinic acid], the pIC50 was 5.10 to 6.00. `CCOc1cc(C(=O)O)nc(OCC)c1-n1cc(-c2ccc(F)cc2F)c2ncc(-c3c(C)noc3C)cc21` [P-0431, 5-(3-(2,4-difluorophenyl)-6-(3,5-dimethylisoxazol-4-yl)-1H-pyrrolo[3,2-b]pyridin-1-yl)-4,6-diethoxypicolinic acid]: the pIC50 was 5.10 to 6.00.

Turning to `CCOc1cc(C(=O)OC)nc(OCC)c1-c1cn(-c2ccc(F)cc2F)c2ncc(-c3c(C)noc3C)cc12` [P-0432, methyl 5-(1-(2,4-difluorophenyl)-5-(3,5-dimethylisoxazol-4-yl)-1H-pyrrolo[2,3-b]pyridin-3-yl)-4,6-diethoxypicolinate], the pIC50 was 3.00 to 5.10. As for `CCOc1cc(C(=O)O)nc(OCC)c1-c1cn(C2CCN(C(=O)OC(C)(C)C)CC2)c2ncc(-c3c(C)noc3C)cc12` [P-0433, 5-(1-(1-(tert-butoxycarbonyl)piperidin-4-yl)-5-(3,5-dimethylisoxazol-4-yl)-1H-pyrrolo[2,3-b]pyridin-3-yl)-4,6-diethoxypicolinic acid], the pIC50 was 3.00 to 5.10. As to `Cc1noc(C)c1-c1cnc2c(c1)c(C1CCC(C(=O)O)CC1)cn2-c1ccc(F)cc1F` (stereo not drawn) [P-0434, 4-(1-(2,4-difluorophenyl)-5-(3,5-dimethylisoxazol-4-yl)-1H-pyrrolo[2,3-b]pyridin-3-yl)cyclohexane-1-carboxylic acid], the pIC50 is 5.10 to 6.00. Regarding `CCOc1cc(C(=O)O)nc(OCC)c1-c1cn(C2CCN(S(C)(=O)=O)CC2)c2ncc(-c3c(C)noc3C)cc12` [P-0435, 5-(5-(3,5-dimethylisoxazol-4-yl)-1-(1-(methylsulfonyl)piperidin-4-yl)-1H-pyrrolo[2,3-b]pyridin-3-yl)-4,6-diethoxypicolinic acid], the pIC50 was 3.00 to 5.10. As for `CCOc1cc(C(=O)O)nc(OCC)c1-c1cn(-c2cccnc2)c2ncc(-c3c(C)noc3C)cc12` [P-0436, 5-(5-(3,5-dimethylisoxazol-4-yl)-1-(pyridin-3-yl)-1H-pyrrolo[2,3-b]pyridin-3-yl)-4,6-diethoxypicolinic acid], the figure is 5.10 to 6.00; as for `Cc1noc(C)c1-c1cnc2c(c1)c(-c1ccc(CC(=O)O)cc1F)cn2-c1ccc(F)cc1F` [P-0437], 5.10 to 6.00. `Cc1noc(C)c1-c1cnc2c(c1)c(-c1ccc(CC(=O)O)cc1)cn2-c1ccc(F)cc1F` [P-0438, 2-(4-(1-(2,4-difluorophenyl)-5-(3,5-dimethylisoxazol-4-yl)-1H-pyrrolo[2,3-b]pyridin-3-yl)phenyl)acetic acid]: the pIC50 is 3.00 to 5.10. With `Cc1noc(C)c1-c1cnc2c(c1)c(-c1c(Cl)cc(C(=O)O)cc1OC(F)(F)F)cn2-c1cccnn1` [P-0439, 3-chloro-4-(5-(3,5-dimethylisoxazol-4-yl)-1-(pyridazin-3-yl)-1H-pyrrolo[2,3-b]pyridin-3-yl)-5-(trifluoromethoxy)benzoic acid], the pIC50 was 6.00 to 10.00.

As for `COC(=O)c1cc(Cl)c(-c2cn(-c3ccc(C4CC4)nc3)c3ncc(-c4c(C)noc4C)cc23)c(OC(F)(F)F)c1` [P-0440, methyl 3-chloro-4-(1-(6-cyclopropylpyridin-3-yl)-5-(3,5-dimethylisoxazol-4-yl)-1H-pyrrolo[2,3-b]pyridin-3-yl)-5-(trifluoromethoxy)benzoate], the pIC50 is 3.00 to 5.10.

With `Cc1noc(C)c1-c1cnc2c(c1)c(-c1c(Cl)cc(C(=O)O)cc1OC(F)(F)F)cn2-c1ccc(C2CC2)nc1` [P-0441, 3-chloro-4-(1-(6-cyclopropylpyridin-3-yl)-5-(3,5-dimethylisoxazol-4-yl)-1H-pyrrolo[2,3-b]pyridin-3-yl)-5-(trifluoromethoxy)benzoic acid], the pIC50 was 6.00 to 10.00.

For `CCOc1cc(C(=O)O)c(F)cc1-c1cn(C2CCN(C(=O)OC(C)(C)C)CC2)c2ncc(-c3c(C)noc3C)cc12` [P-0442, 4-(1-(1-(tert-butoxycarbonyl)piperidin-4-yl)-5-(3,5-dimethylisoxazol-4-yl)-1H-pyrrolo[2,3-b]pyridin-3-yl)-5-ethoxy-2-fluorobenzoic acid], the pIC50 was 3.00 to 5.10.

Turning to `COc1ccc(CC(=O)O)cc1-c1cn(-c2ccc(F)cc2F)c2ncc(-c3c(C)noc3C)cc12` [P-0443, 2-(3-(1-(2,4-difluorophenyl)-5-(3,5-dimethylisoxazol-4-yl)-1H-pyrrolo[2,3-b]pyridin-3-yl)-4-methoxyphenyl)acetic acid], the negative-log IC50 (pIC50) was 5.10 to 6.00. For `Cc1noc(C)c1-c1cnc2c(c1)c(-c1cc(F)c(C(=O)O)cc1OC(F)(F)F)cn2-c1ccc(C2CC2)nc1` [P-0444, 4-(1-(6-cyclopropylpyridin-3-yl)-5-(3,5-dimethylisoxazol-4-yl)-1H-pyrrolo[2,3-b]pyridin-3-yl)-2-fluoro-5-(trifluoromethoxy)benzoic acid], the pIC50 is 5.10 to 6.00. On to `CCOc1cc(C(=O)O)c(F)cc1-c1cn(C2CCN(C(=O)C(C)(C)C)CC2)c2ncc(-c3c(C)noc3C)cc12` [P-0445, 4-(5-(3,5-dimethylisoxazol-4-yl)-1-(1-pivaloylpiperidin-4-yl)-1H-pyrrolo[2,3-b]pyridin-3-yl)-5-ethoxy-2-fluorobenzoic acid], for which the pIC50 is 3.00 to 5.10.

Regarding `CCOc1cc(C(=O)O)c(F)cc1-c1cn(C2CCN(CCC#N)CC2)c2ncc(-c3c(C)noc3C)cc12` [P-0446, 4-(1-(1-(2-cyanoethyl)piperidin-4-yl)-5-(3,5-dimethylisoxazol-4-yl)-1H-pyrrolo[2,3-b]pyridin-3-yl)-5-ethoxy-2-fluorobenzoic acid], the pIC50 was 3.00 to 5.10. On to `CCOc1cc(C(=O)O)c(F)cc1-c1cn(C2CCN(C(=O)CO)CC2)c2ncc(-c3c(C)noc3C)cc12` [P-0447, 4-(5-(3,5-dimethylisoxazol-4-yl)-1-(1-(2-hydroxyacetyl)piperidin-4-yl)-1H-pyrrolo[2,3-b]pyridin-3-yl)-5-ethoxy-2-fluorobenzoic acid], for which the pIC50 is 3.00 to 5.10. Regarding `CCc1onc(C)c1-c1cnc2c(c1)c(-c1c(Cl)cc(C(=O)O)cc1OC(F)(F)F)cn2-c1ccc(C2CC2)nc1` [P-0448, 3-chloro-4-(1-(6-cyclopropylpyridin-3-yl)-5-(5-ethyl-3-methylisoxazol-4-yl)-1H-pyrrolo[2,3-b]pyridin-3-yl)-5-(trifluoromethoxy)benzoic acid], the negative-log IC50 (pIC50) is 5.10 to 6.00.

On to `Cc1nnn(C)c1-c1cnc2c(c1)c(-c1cccc(C(=O)O)c1)cn2[C@@H](C)c1ccccn1` [P-0449, (S)-3-(5-(1,4-dimethyl-1H-1,2,3-triazol-5-yl)-1-(1-(pyridin-2-yl)ethyl)-1H-pyrrolo[2,3-b]pyridin-3-yl)benzoic acid], for which the pIC50 was 5.10 to 6.00.

Source of the values: patent publication US11446287B2, “Compounds and methods for EP300 or CBP modulation and indications therefor” (Opna Immuno-Oncology SA, priority 2019, dated 2022).
